Activity calls are given as the source filed them. No cut-off for these calls is given here.
What was measured:
[1] = Cytotoxicity against human HepG2 cells assessed as reduction in cell viability incubated for 48 hrs by MTT assay; assay type: toxicity, cell-based; settings: read-out: TC50
Plasmodium falciparum [2] = assay: Antiplasmodial activity against Plasmodium falciparum 3D7 infected in human red blood cells assessed as inhibition of parasitemia incubated for 48 hrs by giemsa staining based light microscopic analysis; assay type: functional, organism-based, Red blood cell; settings: 3D7, Erythrocyte
[3] = Therapeutic index, ratio of TC50 for cytotoxicity against human HepG2 cells to IC50 for antiplasmodial activity against Plasmodium falciparum 3D7 infected in human red blood cells; assay type: toxicity, cell-based; settings: read-out: TI
Plasmodium falciparum [4] = assay: Inhibition of Plasmodium falciparum plasmepsin X […] at 1 uM using DABCYL-G-PSFVEAPVRGG-EDANS as substrate by fluorescence based assay relative to control
Erythrocyte = assay: Hemolytic activity against human red blood cells upto 1600 uM incubated for 1 hrs by hemolysis assay; assay type: toxicity, cell-based
Plasmodium falciparum [5] = assay: Antiplasmodial activity against artemisinin partially resistant Plasmodium falciparum harbouring C580Y mutant assessed as inhibition of parasitemia; assay type: functional, organism-based, Red blood cell; settings: Erythrocyte
Plasmodium falciparum [6] = assay: Resistance index, ratio of IC50 for antiplasmodial activity against artemisinin partially resistant Plasmodium falciparum harbouring C580Y mutant to IC50 for antiplasmodial activity against Plasmodium falciparum 3D7; assay type: functional
Plasmodium berghei [7] = assay: In vivo antimalarial activity against Plasmodium berghei ANKA infected in C57BL/6 mouse assessed as reduction in parasitemia at 50 mg/kg, ip administered for 4 consecutive days and measured on day 8 post-infection by giemsa staining based microscopic analysis relative to control; assay type: functional; design: scale not given: the % may be the effect or the level left; settings: time 8 day
Plasmodium berghei [8] = assay: In vivo antimalarial activity against GFP-expressing Plasmodium berghei infected in C57BL/6 mouse assessed as inhibition of parasite growth in thick blood smear at 50 mg/kg, ip administered for 4 days and measured upto 8 days post-infection by microscopic analysis; assay type: functional, organism-based; settings: time <= 8.0 day
Plasmodium berghei [9] = assay: In vivo antimalarial activity against GFP-expressing Plasmodium berghei infected in C57BL/6 mouse assessed as inhibition of parasite growth in thin blood smear at 50 mg/kg, ip administered for 4 days and measured upto 8 days post-infection by giemsa staining based microscopic analysis; assay type: functional, organism-based; settings: time <= 8.0 day
Plasmodium berghei [10] = assay: In vivo antimalarial activity against Plasmodium berghei ANKA infected in C57BL/6 mouse assessed as reduction in parasitemia at 50 mg/kg, ip administered for 4 days and measured at day 8 post-infection in the presence of artesunate by giemsa staining based microscopic analysis relative to control; assay type: functional; design: scale not given: the % may be the effect or the level left; settings: time 8 day
Plasmodium berghei [11] = assay: In vivo antimalarial activity against Plasmodium berghei ANKA strain infected in C57BL/6 mouse assessed as increase in mean survival time at 50 mg/kg, ip administered for 4 days and measured upto 30 days (reference value: 13 days); assay type: functional; settings: time <= 30 day
Plasmodium berghei [12] = assay: In vivo antimalarial activity against Plasmodium berghei ANKA strain infected in C57BL/6 mouse assessed as increase in mean survival time at 50 mg/kg, ip administered for 4 days and measured upto 30 days in the presence of artesunate (reference value: 13 days); assay type: functional; settings: time <= 30 day
Plasmodium berghei [13] = assay: Antiplasmodial activity against firefly luciferase-expressing Plasmodium berghei liver stage infected in human Huh-7 cells assessed as inhibition of parasite growth preincubated with cells for 1 hrs followed by parasite infection and […] by bioluminescence assay; assay type: functional, organism-based
[14] = Toxicity in C57BL/6 mouse assessed as effect on body weight at 100 to 400 mg/kg, ip measured upto 24 hrs; assay type: organism-based; settings: in vivo, dose 100-400 mg/kg
[15] = Toxicity in C57BL/6 mouse assessed as effect on feeding at 100 to 400 mg/kg, ip measured upto 24 hrs; assay type: organism-based; settings: in vivo, dose 100-400 mg/kg
[16] = Toxicity in C57BL/6 mouse assessed as effect on motor activity at 100 to 400 mg/kg, ip measured upto 24 hrs; assay type: organism-based; settings: in vivo, dose 100-400 mg/kg
[17] = Toxicity in C57BL/6 mouse assessed as effect on total bilirubin level at 400 mg/kg, ip measured upto 24 hrs (reference value: 0.39 mg/dl); assay type: organism-based; settings: in vivo
[18] = Toxicity in C57BL/6 mouse assessed as effect on direct bilirubin level at 400 mg/kg, ip measured upto 24 hrs (reference value: 0.17 mg/dl); assay type: organism-based; settings: in vivo
[19] = Toxicity in C57BL/6 mouse assessed as effect on indirect bilirubin level at 400 mg/kg, ip measured upto 24 hrs (reference value: 0.22 mg/dl); assay type: organism-based; settings: in vivo
[20] = Toxicity in C57BL/6 mouse assessed as effect on SGOT level in serum at 400 mg/kg, ip measured upto 24 hrs (reference value: 147.2 U/L); assay type: organism-based; settings: in vivo
[21] = Toxicity in C57BL/6 mouse assessed as effect on SGPT level in serum at 400 mg/kg, ip measured upto 24 hrs (reference value: 37.59 U/L); assay type: organism-based; settings: in vivo
[22] = Toxicity in C57BL/6 mouse assessed as effect on alkaline phosphatase level in serum at 400 mg/kg, ip measured upto 24 hrs (reference value: 108.3 U/L); assay type: organism-based; settings: in vivo
[23] = Toxicity in C57BL/6 mouse assessed as effect on urea level at 400 mg/kg, ip measured upto 24 hrs (reference value: 44.50 mg/dl); assay type: organism-based; settings: in vivo
[24] = Toxicity in C57BL/6 mouse assessed as effect on serum creatinine level at 400 mg/kg, ip measured upto 24 hrs (reference value: 0.47 mg/dl); assay type: organism-based; settings: in vivo
[25] = Toxicity in C57BL/6 mouse assessed as effect on serum uric acid level at 400 mg/kg, ip measured upto 24 hrs (reference value: 2.58 mg/dl); assay type: organism-based; settings: in vivo
[26] = Toxicity in C57BL/6 mouse assessed as effect on serum calcium level at 400 mg/kg, ip measured upto 24 hrs (reference value: 8.89 mg/dl); assay type: organism-based; settings: in vivo
[27] = Toxicity in C57BL/6 mouse assessed as effect on serum LDH level at 400 mg/kg, ip measured upto 24 hrs; assay type: organism-based; settings: in vivo
[28] = Toxicity in C57BL/6 mouse assessed as effect on total protein level at 400 mg/kg, ip measured upto 24 hrs (reference value: 6.29 gm/dl); assay type: organism-based; settings: in vivo
[29] = Toxicity in C57BL/6 mouse assessed as effect on albumin level at 400 mg/kg, ip measured upto 24 hrs (reference value: 2.10 gm/dl); assay type: organism-based; settings: in vivo
[30] = Toxicity in C57BL/6 mouse assessed as effect on globulin level at 400 mg/kg, ip measured upto 24 hrs (reference value: 4.19 gm/dl); assay type: organism-based; settings: in vivo
[31] = Toxicity in C57BL/6 mouse assessed as effect on liver structure at 400 mg/kg, ip measured upto 24 hrs by H&E staining based histopathological analysis; assay type: organism-based; settings: in vivo
[32] = Toxicity in C57BL/6 mouse assessed as effect on kidney structure at 400 mg/kg, ip measured upto 24 hrs by H&E staining based histopathological analysis; assay type: organism-based; settings: in vivo
[33] = Drug recovery in C57BL/6 mouse plasma at 0.1 mg/ml; assay type: ADME, cell-free
Plasmodium berghei [34] = assay: Antiplasmodial activity against Plasmodium berghei isolated from parasite-infected mouse blood assessed as reduction in number of healthy parasites in compound treated ookinete medium co-cultured with mouse blood at 0.05 to 0.45 uM by giemsa staining based analysis; assay type: functional, organism-based; settings: dose 0.05-0.45 µM
Plasmodium berghei [35] = assay: Antimalarial activity against Plasmodium berghei assessed as reduction in Plasmodium berghei oocyte formation in Anopheles stephensi mosquito midgut fed with blood isolated from compound treated parasite-infected Balb/c mouse at 200 mg/kg administered on day 1 and day 9; assay type: functional, organism-based; settings: time 9.0 day
Plasmodium berghei [36] = assay: Antimalarial activity against Plasmodium berghei infected in Balb/c mouse assessed as parasite killing at 200 mg/kg administered on day 1 and day 9 relative to control; assay type: functional; settings: time 9 day
Plasmodium berghei [37] = assay: Antimalarial activity against Plasmodium berghei assessed as reduction in oocyte burden in Anopheles stephensi mosquito midgut fed with blood isolated from compound treated parasite-infected Balb/c mouse at 200 mg/kg administered on day 1 and day 9 relative to control; assay type: functional; design: scale not given: the % may be the effect or the level left; settings: time 9 day

With `O=C(N[C@@H](Cc1ccccc1)[C@@H](O)CN1CCN(Cc2ccccc2)CC1)c1ccc2ccccc2c1` as the molecule, how does the CC50 at 48 h [1] read?
The CC50 at 48 h was 234 µM.

And the IC50 (Plasmodium falciparum [2])?
The IC50 was 150 nM.

And the selectivity ratio [3]?
The selectivity ratio was 1560.

And the inhibition (Plasmodium falciparum [4])?
The inhibition was 17.7%.

And the Activity (Erythrocyte)?
Its Activity is “Non-Toxic”.

What about the IC50 (Plasmodium falciparum [5]) of the same molecule?
The IC50 was 110 nM.

What about the “Ratio IC50” value (Plasmodium falciparum [6]) of the same molecule?
The value was 0.72.

And the Activity (Plasmodium berghei [7])?
Its Activity is 75%.

And the Activity (Plasmodium berghei [8])?
The Activity was “Active”.

And the Activity (Plasmodium berghei [9])?
The Activity was “Active”.

And the Activity (Plasmodium berghei [10])?
Its Activity is 99%.

What about the MST (Plasmodium berghei [11]) of the same molecule?
Its MST is 17 days.

And the MST (Plasmodium berghei [12])?
The MST was 27 days.

And the IC50 (Plasmodium berghei [13])?
The IC50 was 1560 nM.

And the Activity [14]?
The Activity was “Non-Toxic”.

And the Activity [15]?
The Activity was “Non-Toxic”.

What about the Activity [16] of the same molecule?
The Activity was “Non-Toxic”.

And the Activity [17]?
The Activity was 0.28 mg/dL.

What about the Activity [18] of the same molecule?
Its Activity is 0.11 mg/dL.

And the Activity [19]?
The Activity was 0.17 mg/dL.

And the Activity [20]?
The Activity was 123.1 U/L.

What about the Activity [21] of the same molecule?
The Activity was 22.45 U/L.

What about the Activity [22] of the same molecule?
Its Activity is 41.9 U/L.

What about the Activity [23] of the same molecule?
Its Activity is 49.03 mg/dL.

What about the Activity [24] of the same molecule?
The Activity was 0.77 mg/dL.

What about the Activity [25] of the same molecule?
The Activity was 2.49 mg/dL.

And the Activity [26]?
The Activity was 9.24 mg/dL.

What about the Activity [27] of the same molecule?
Its Activity is “Non-Toxic”.

And the Activity [28]?
Its Activity is 6.82 g/dL.

And the Activity [29]?
Its Activity is 2.68 g/dL.

What about the Activity [30] of the same molecule?
The Activity was 4.14 g/dL.

And the Activity [31]?
Its Activity is “Non-Toxic”.

And the Activity [32]?
The Activity was “Non-Toxic”.

What about the Drug recovery [33] of the same molecule?
Its Drug recovery is over 87.3%.

And the Activity (Plasmodium berghei [34])?
The Activity was “Active”.

What about the Activity (Plasmodium berghei [35]) of the same molecule?
Its Activity is “Active”.

What about the Activity (Plasmodium berghei [36]) of the same molecule?
Its Activity is 100%.

And the Activity (Plasmodium berghei [37])?
Its Activity is 80%.
